The source of these data is PMC7838034 (Acta Pharmaceutica Sinica. B, 2020).

Experiment [1] deals with PARP1 (Homo sapiens, UniProt P09874). Briefly: PARP1 inhibition assay. Format: biochemical. The conditions noted are these: tested in duplicate, average; for inhibition at 1 µM: read-out: Inhibition rate PARP1, 1 μmol/L; for inhibition at 10 µM: read-out: Inhibition rate PARP1, 10 μmol/L.
Experiment [2] addresses recombinant BRD4(BD1 + BD2) (Homo sapiens, UniProt O60885). Nature of the experiment: BRD4 inhibition assay. In kind it is binding. As to conditions: tested in duplicate, average; for inhibition at 1 µM: read-out: Inhibition rate BRD4, 1 μmol/L; for inhibition at 10 µM: read-out: Inhibition rate BRD4, 10 μmol/L.
The test system of experiment [3] is MDA-MB-468 cells. Nature of the experiment: Cell viability assay. The conditions noted are these: read-out: Anti-proliferative activity (IC50). In kind it is cell-based, human.
Setting [4] is: MDA-MB-468 cells, cell viability assay for 24 h.

Where two headings read alike, the source gives them in different places.

Chain of PARP1 (P09874 whole entry): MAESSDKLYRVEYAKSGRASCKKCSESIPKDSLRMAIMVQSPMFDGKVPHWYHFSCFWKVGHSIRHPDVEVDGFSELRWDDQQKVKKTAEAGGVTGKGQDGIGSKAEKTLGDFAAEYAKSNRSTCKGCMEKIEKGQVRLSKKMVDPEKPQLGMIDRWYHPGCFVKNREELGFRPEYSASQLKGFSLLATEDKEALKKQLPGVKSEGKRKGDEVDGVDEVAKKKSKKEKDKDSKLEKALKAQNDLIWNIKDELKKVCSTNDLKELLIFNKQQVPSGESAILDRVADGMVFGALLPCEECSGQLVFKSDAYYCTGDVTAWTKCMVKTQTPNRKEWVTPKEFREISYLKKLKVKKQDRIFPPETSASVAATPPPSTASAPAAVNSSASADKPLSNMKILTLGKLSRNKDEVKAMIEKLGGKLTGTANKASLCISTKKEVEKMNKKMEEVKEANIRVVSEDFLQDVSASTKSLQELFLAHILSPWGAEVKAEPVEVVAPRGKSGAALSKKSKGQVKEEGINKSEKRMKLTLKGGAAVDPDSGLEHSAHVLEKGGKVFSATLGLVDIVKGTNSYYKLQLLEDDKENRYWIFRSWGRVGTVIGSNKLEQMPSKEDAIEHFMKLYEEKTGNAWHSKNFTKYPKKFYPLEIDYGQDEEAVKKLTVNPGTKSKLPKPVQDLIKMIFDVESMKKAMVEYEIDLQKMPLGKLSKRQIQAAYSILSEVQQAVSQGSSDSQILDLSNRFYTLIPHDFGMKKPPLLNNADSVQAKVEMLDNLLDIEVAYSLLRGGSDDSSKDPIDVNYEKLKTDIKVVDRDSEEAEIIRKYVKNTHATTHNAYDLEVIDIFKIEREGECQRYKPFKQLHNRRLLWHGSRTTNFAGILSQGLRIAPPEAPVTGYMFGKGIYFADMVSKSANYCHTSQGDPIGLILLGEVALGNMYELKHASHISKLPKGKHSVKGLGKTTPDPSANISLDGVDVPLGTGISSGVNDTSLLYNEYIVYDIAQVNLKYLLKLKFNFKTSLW

As to “2-(2-(2-((3a,7a-Dihydro-1H-benzo[d][1,2,3]triazol-1-yl)oxy)ethoxy)-4-methoxyphenyl)-5,7-dimethoxyquinazolin-4(3H)-one [Compound 19q]”, the results for the “Inhibition rate PARP1” value in experiment [1] (1 μmol/L) and in experiment [1] (10 μmol/L) were 3% and 2%, respectively. The figures for the “Inhibition rate BRD4” value in experiment [2] (1 μmol/L) and in experiment [2] (10 μmol/L) were 11% and 80%, respectively. Further, the IC50 (in general, the concentration at which inhibition is half-maximal) in experiment [3] (setting [4]) is 24.2 ± 2.2 µM.

In the case of “2-(4-((4-(Cyclopropanecarbonyl)piperazin-1-yl)methyl)phenyl)-5,7-dimethoxyquinazolin-4(3H)-one [Compound 11c]”, the “Inhibition rate PARP1” value was 8% in experiment [1] (1 μmol/L) and 60% in experiment [1] (10 μmol/L). The “Inhibition rate BRD4” value in experiment [2] (1 μmol/L) came to 9%; in experiment [2] (10 μmol/L), 47%.

With “2-(4-((4-(Cyclopropanecarbonyl)piperazin-1-yl)methyl)phenyl)quinazolin-4(3H)-one [Compound 11d]”, the entries for the “Inhibition rate PARP1” value in experiment [1] (1 μmol/L) and in experiment [1] (10 μmol/L) were 18% and 71%, respectively. In addition, the “Inhibition rate BRD4” value in experiment [2] (1 μmol/L) was determined as 4%; in experiment [2] (10 μmol/L) it was 41%.

Regarding “2-(4-Chloro-2-(2-((3a,7a-dihydro-1H-benzo[d][1,2,3]triazol-1-yl)oxy)ethoxy)phenyl)-5,7-dimethoxyquinazolin-4(3H)-one [Compound 19r]”, the “Inhibition rate PARP1” value in experiment [1] (1 μmol/L) amounted to 4%; in experiment [1] (10 μmol/L) it was 6%. Moreover, the “Inhibition rate BRD4” value is given as 17% in experiment [2] (1 μmol/L) and 77% in experiment [2] (10 μmol/L). Further, in experiment [3] (setting [4]), the IC50 was > 30 µM.

As for `CNC(=O)c1ccc(-c2nc3cc(OC)cc(OC)c3c(=O)[nH]2)cc1` [Compound 5a, 4-(5,7-Dimethoxy-4-oxo-3,4-dihydroquinazolin-2-yl)-N-methylbenzamide], the inhibition at 1 µM in experiment [1] came out at 4%; in experiment [2], 1%. Also, the inhibition at 10 µM came to 25% in experiment [1] and 36% in experiment [2].

As to `CNC(=O)c1ccc(-c2nc3ccccc3c(=O)[nH]2)cc1` [Compound 5b, N-Methyl-4-(4-oxo-3,4-dihydroquinazolin-2-yl)benzamide], in experiment [1], the inhibition at 1 µM came out at 0% and the inhibition at 10 µM was 15%. Besides, in experiment [2], the inhibition at 1 µM was 0% and the inhibition at 10 µM was found to be 22%.

As to `COc1cc(OC)c2c(=O)[nH]c(-c3ccc(C(N)=O)cc3)nc2c1` [Compound 5c, 4-(5,7-Dimethoxy-4-oxo-3,4-dihydroquinazolin-2-yl)benzamide], in experiment [1], the inhibition at 1 µM is 0% and the inhibition at 10 µM is 2%. In experiment [2], the inhibition at 1 µM worked out at 1% and the inhibition at 10 µM worked out at 18%.

With `NC(=O)c1ccc(-c2nc3ccccc3c(=O)[nH]2)cc1` [Compound 5d, 4-(4-Oxo-3,4-dihydroquinazolin-2-yl)benzamide], in experiment [1], the inhibition at 1 µM is 0% and the inhibition at 10 µM amounted to 1%. Besides, in experiment [2], the inhibition at 1 µM amounted to 2% and the inhibition at 10 µM came to 19%.

Consider `COc1cc(OC)c2c(=O)[nH]c(-c3ccc(N4CCOCC4)cc3)nc2c1` [Compound 5e, 5,7-Dimethoxy-2-(4-morpholinophenyl)quinazolin-4(3H)-one], for which, in experiment [1], the inhibition at 1 µM stood at 2% and the inhibition at 10 µM worked out at 36%. Further, in experiment [2], the inhibition at 1 µM was found to be 12% and the inhibition at 10 µM was 70%.

Take `O=c1[nH]c(-c2ccc(N3CCOCC3)cc2)nc2ccccc12` [Compound 5f, 2-(4-Morpholinophenyl)quinazolin-4(3H)-one]: in experiment [1], the inhibition at 1 µM stood at 0% and the inhibition at 10 µM worked out at 29%. Besides, in experiment [2], the inhibition at 1 µM was determined as 12% and the inhibition at 10 µM came out at 55%.

Take `COc1cc(OC)c2c(=O)[nH]c(-c3ccc4cc[nH]c4c3)nc2c1` [Compound 5g, 2-(1H-Indol-6-yl)-5,7-dimethoxyquinazolin-4(3H)-one]: in experiment [1], the inhibition at 1 µM stood at 9% and the inhibition at 10 µM was determined as 34%. Also, in experiment [2], the inhibition at 1 µM was 3% and the inhibition at 10 µM came out at 13%.

`O=c1[nH]c(-c2cccc3nc[nH]c23)nc2ccccc12` [Compound 5h, 2-(1H-Benzo[d]imidazole-7-yl)quinazolin-4(3H)-one]: in experiment [1], the inhibition at 1 µM turned out to be 3% and the inhibition at 10 µM is 10%. In experiment [2], the inhibition at 1 µM amounted to 0% and the inhibition at 10 µM was determined as 11%.

Turning to `COc1cc(OC)c2c(=O)[nH]c(-c3c[nH]c4ncccc34)nc2c1` [Compound 5i, 5,7-Dimethoxy-2-(1H-pyrrolo[2,3-b]pyridin-3-yl)quinazolin-4(3H)-one], the inhibition at 1 µM in experiment [1] came out at 8%.

In the case of `O=c1[nH]c(-c2c[nH]c3ncccc23)nc2ccccc12` [Compound 5j, 2-(1H-Pyrrolo[2,3-b]pyridin-3-yl)quinazolin-4(3H)-one], the inhibition at 1 µM in experiment [2] came to 6%.

For `COc1cc(OC)c2c(=O)[nH]c(-c3cccc4nc[nH]c34)nc2c1` [Compound 5k, 2-(1H-Benzo[d]imidazole-7-yl)-5,7-dimethoxyquinazolin-4(3H)-one], the inhibition at 1 µM in experiment [1] was 6%; in experiment [2], 8%. Besides, the inhibition at 10 µM in experiment [1] was found to be 39%; in experiment [2], 42%.

As for `COc1cc(OC)c2c(=O)[nH]c(-c3cccc(C(=O)N4CCN(C(=O)C5CC5)CC4)c3)nc2c1` [Compound 11a, 2-(3-(4-(Cyclopropanecarbonyl)piperazine-1-carbonyl)phenyl)-5,7-dimethoxyquinazolin-4(3H)-one], in experiment [1], the inhibition at 1 µM was determined as 6% and the inhibition at 10 µM is 57%. Also, in experiment [2], the inhibition at 1 µM was determined as 4% and the inhibition at 10 µM stood at 50%.

Turning to `O=C(c1cccc(-c2nc3ccccc3c(=O)[nH]2)c1)N1CCN(C(=O)C2CC2)CC1` [Compound 11b, 2-(3-(4-(Cyclopropanecarbonyl)piperazine-1-carbonyl)phenyl)quinazolin-4(3H)-one], the inhibition at 1 µM in experiment [1] was found to be 16%; in experiment [2] it was 12%. Besides, the inhibition at 10 µM was 70% in experiment [1] and 43% in experiment [2].

Turning to `COc1cccc2nc(-c3cccc(C(=O)N4CCN(C(=O)C5CC5)CC4)c3)[nH]c(=O)c12` [Compound 11e, 2-(3-(4-(Cyclopropanecarbonyl)piperazine-1-carbonyl)phenyl)-5-methoxyquinazolin-4(3H)-one], the inhibition at 1 µM in experiment [1] came to 4%; in experiment [2], 8%. The values for the inhibition at 10 µM in experiment [1] and in experiment [2] were 46% and 30%, respectively.

As for `COc1cc(OC)c2c(=O)[nH]c(-c3ccc(C(=O)N4CCN(C(=O)C5CC5)CC4)cc3F)nc2c1` [Compound 15a, 2-(4-(4-(Cyclopropanecarbonyl)piperazine-1-carbonyl)-2-fluorophenyl)-5,7-dimethoxyquinazolin-4(3H)-one], in experiment [1], the inhibition at 1 µM came out at 14% and the inhibition at 10 µM was 72%. Besides, in experiment [2], the inhibition at 1 µM amounted to 7% and the inhibition at 10 µM stood at 68%.

As to `O=C(c1ccc(-c2nc3ccccc3c(=O)[nH]2)c(F)c1)N1CCN(C(=O)C2CC2)CC1` [Compound 15b, 2-(4-(4-(Cyclopropanecarbonyl)piperazine-1-carbonyl)-2-fluorophenyl)quinazolin-4(3H)-one], in experiment [1], the inhibition at 1 µM was 6% and the inhibition at 10 µM is ≤ 87%. Besides, in experiment [2], the inhibition at 1 µM stood at 4% and the inhibition at 10 µM turned out to be 53%.

With `COc1cc(OC)c2c(=O)[nH]c(-c3ccc(C(=O)N4CCn5c(nnc5C(F)(F)F)C4)cc3F)nc2c1` [Compound 15c, 2-(2-Fluoro-4-(3-(trifluoromethyl)-5,6,7,8-tetrahydro-[1,2,4]triazolo[4,3-a]pyrazine-7-carbonyl)phenyl)-5,7-dimethoxyquinazolin-4(3H)-one], the inhibition at 1 µM is 11% in experiment [1] and 5% in experiment [2]. Also, the inhibition at 10 µM in experiment [1] worked out at 55%; in experiment [2], 30%.

Regarding `O=C(c1ccc(-c2nc3ccccc3c(=O)[nH]2)c(F)c1)N1CCn2c(nnc2C(F)(F)F)C1` [Compound 15d, 2-(2-Fluoro-4-(3-(trifluoromethyl)-5,6,7,8-tetrahydro-[1,2,4]triazolo[4,3-a]pyrazine-7-carbonyl)phenyl)quinazolin-4(3H)-one], the inhibition at 10 µM in experiment [1] was 60%. In addition, in experiment [2], the inhibition at 1 µM was found to be 3% and the inhibition at 10 µM is 18%.

As for `COc1cccc2nc(-c3ccc(C(=O)N4CCN(C(=O)C5CC5)CC4)cc3F)[nH]c(=O)c12` [Compound 15e, 2-(4-(4-(Cyclopropanecarbonyl)piperazine-1-carbonyl)-2-fluorophenyl)-5-methoxyquinazolin-4(3H)-one], the inhibition at 1 µM is 7% in experiment [1] and 9% in experiment [2].

For `COc1cc(OC)c2c(=O)[nH]c(-c3cc(Cl)ccc3OCCOc3ccccc3C(N)=O)nc2c1` [Compound 19a, 2-(2-(4-Chloro-2-(5,7-dimethoxy-4-oxo-3,4-dihydroquinazolin-2-yl)phenoxy)ethoxy)benzamide], in experiment [1], the inhibition at 1 µM stood at 30% and the inhibition at 10 µM is 85%. In experiment [2], the inhibition at 1 µM amounted to 31% and the inhibition at 10 µM came to 90%. In experiment [3] (Homo sapiens, MDA-MB-468, 24 h), the IC50 was 6 ± 0.9 µM.

On to `COc1cc(OC)c2c(=O)[nH]c(-c3ccc(OCOc4ccccc4C(N)=O)cc3)nc2c1` [Compound 19v, 2-((4-(5,7-Dimethoxy-4-oxo-3,4-dihydroquinazolin-2-yl)phenoxy)methoxy)benzamide], for which, in experiment [1], the inhibition at 1 µM was 19% and the inhibition at 10 µM was 51%. Besides, in experiment [2], the inhibition at 1 µM stood at 29% and the inhibition at 10 µM stood at 60%.

In the case of `O=C(c1cc(Cc2n[nH]c(=O)c3ccccc23)ccc1F)N1CCN(C(=O)C2CC2)CC1` [Olaparib, reference compound], in experiment [3] (Homo sapiens, MDA-MB-468, 24 h), the IC50 is 1.1 ± 1.4 µM.
